Tests used:
ABT-737 = compound: CN(C)CC[C@H](CSc1ccccc1)Nc1ccc(S(=O)(=O)NC(=O)c2ccc(N3CCN(Cc4ccccc4-c4ccc(Cl)cc4)CC3)cc2)cc1[N+](=O)[O-] [ABT-737]
Saracatinib/AZD0530 = compound: CN1CCN(CCOc2cc(OC3CCOCC3)c3c(Nc4c(Cl)ccc5c4OCO5)ncnc3c2)CC1 [Saracatinib/AZD0530]
Flavopiridol = compound: CN1CC[C@H](c2c(O)cc(O)c3c(=O)cc(-c4ccccc4Cl)oc23)[C@H](O)C1 [Flavopiridol]
[1] = compound: CO[C@@H](C)Cn1c(=O)n(C)c2cnc3ccc(-c4cncc(C(C)(C)O)c4)cc3c21
Taselisib/GDC0032 = compound: Cc1nc(-c2cn3c(n2)-c2ccc(-c4cnn(C(C)(C)C(N)=O)c4)cc2OCC3)n(C(C)C)n1 [Taselisib/GDC0032]
YKL-5-124 = compound: C=CC(=O)Nc1ccc(C(=O)Nc2[nH]nc3c2CN(C(=O)N[C@H](CN(C)C)c2ccccc2)C3(C)C)cc1 [YKL-5-124]; test: GR value, 72 h; higher = faster growth (1 = untreated, <0 = killing);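 also: breast cancer and non-malignant breast epithelial lines, nine half-log doses, viable cells counted by Hoechst and LIVE/DEAD dye imaging versus time-zero plates and DMSO controls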
BSJ-03-123 = compound: CC(=O)c1c(C)c2cnc(Nc3ccc(N4CCN(CCOCCOCCOCCNC(=O)COc5cccc6c5C(=O)N(C5CCC(=O)NC5=O)C6=O)CC4)cn3)nc2n(C2CCCC2)c1=O [BSJ-03-123]; test: as above
[2] = compound: CC(=O)c1c(C)c2cnc(Nc3ccc(N4CCNCC4)cn3)nc2n(C2CCCC2)c1=O; test: as above
[3] = compound: CCN1CCN(Cc2ccc(Nc3ncc(F)c(-c4cc(F)c5nc(C)n(C(C)C)c5c4)n3)nc2)CC1; test: as above
Neratinib/HKI272 = compound: CCOc1cc2ncc(C#N)c(Nc3ccc(OCc4ccccn4)c(Cl)c3)c2cc1NC(=O)/C=C/CN(C)C [Neratinib/HKI272]; test: as above
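For GR50, 72 h in this document: breast cancer and non-malignant breast epithelial cell lines, Deep Dye Drop or Dye Drop imaging, nine half-log doses, GR normalized to time-zero plates and DMSO-only controls.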

Q: HCC202 was tested. Which “GR50, 72 h” value (ABT-737) did it give?
A: > 10 µM

Q: And the “GR50, 72 h” value (Saracatinib/AZD0530)?
A: 0.475 µM

Q: And the “GR50, 72 h” value (Flavopiridol)?
A: 0.14 µM

Q: And the “GR50, 72 h” value [1]?
A: 0.00541 µM

Q: What about the “GR50, 72 h” value (Taselisib/GDC0032) of the same cell line?
A: 0.00366 µM

Q: And the GR value (YKL-5-124; 0.001 µM)?
A: 0.459 GR

Q: What about the GR value (YKL-5-124; 0.003162 µM) of the same cell line?
A: 0.432 GR

Q: And the GR value (YKL-5-124; 0.01 µM)?
A: 0.377 GR

Q: And the GR value (YKL-5-124; 0.03162 µM)?
A: 0.409 GR

Q: What about the GR value (YKL-5-124; 0.1 µM) of the same cell line?
A: 0.291 GR

Q: And the GR value (YKL-5-124; 0.3162 µM)?
A: 0.228 GR

Q: And the GR value (YKL-5-124; 1 µM)?
A: 0.337 GR

Q: What about the GR value (YKL-5-124; 3.162 µM) of the same cell line?
A: 0.288 GR

Q: And the GR value (YKL-5-124; 10 µM)?
A: -0.165 GR

Q: What about the GR value (BSJ-03-123; 0.001 µM) of the same cell line?
A: 0.979 GR

Q: What about the GR value (BSJ-03-123; 0.003162 µM) of the same cell line?
A: 0.927 GR

Q: What about the GR value (BSJ-03-123; 0.01 µM) of the same cell line?
A: 0.777 GR

Q: And the GR value (BSJ-03-123; 0.03162 µM)?
A: 0.873 GR

Q: And the GR value (BSJ-03-123; 0.1 µM)?
A: 0.889 GR

Q: And the GR value (BSJ-03-123; 0.3162 µM)?
A: 0.829 GR

Q: And the GR value (BSJ-03-123; 1 µM)?
A: 0.666 GR

Q: And the GR value (BSJ-03-123; 3.162 µM)?
A: 0.768 GR

Q: What about the GR value (BSJ-03-123; 10 µM) of the same cell line?
A: 0.0981 GR

Q: And the GR value ([2]; 0.0003162 µM)?
A: 0.895 GR

Q: What about the GR value ([2]; 0.001 µM) of the same cell line?
A: 1 GR

Q: And the GR value ([2]; 0.003162 µM)?
A: 0.904 GR

Q: What about the GR value ([2]; 0.01 µM) of the same cell line?
A: 0.913 GR

Q: And the GR value ([2]; 0.03162 µM)?
A: 0.889 GR

Q: And the GR value ([2]; 0.1 µM)?
A: 0.798 GR

Q: And the GR value ([2]; 0.3162 µM)?
A: 0.851 GR

Q: And the GR value ([2]; 1 µM)?
A: 0.753 GR

Q: And the GR value ([2]; 3.162 µM)?
A: 0.693 GR

Q: And the GR value ([3]; 0.001 µM)?
A: 0.929 GR

Q: What about the GR value ([3]; 0.003162 µM) of the same cell line?
A: 0.906 GR

Q: And the GR value ([3]; 0.01 µM)?
A: 0.876 GR

Q: And the GR value ([3]; 0.03162 µM)?
A: 0.855 GR

Q: What about the GR value ([3]; 0.1 µM) of the same cell line?
A: 0.809 GR

Q: And the GR value ([3]; 0.3162 µM)?
A: 0.627 GR

Q: What about the GR value ([3]; 1 µM) of the same cell line?
A: 0.642 GR

Q: What about the GR value ([3]; 3.162 µM) of the same cell line?
A: 0.545 GR

Q: What about the GR value ([3]; 10 µM) of the same cell line?
A: 0.309 GR

Q: And the GR value (Neratinib/HKI272; 0.0003162 µM)?
A: 1.05 GR

Q: What about the GR value (Neratinib/HKI272; 0.001 µM) of the same cell line?
A: 0.953 GR

Q: And the GR value (Neratinib/HKI272; 0.003162 µM)?
A: 0.901 GR

Q: And the GR value (Neratinib/HKI272; 0.01 µM)?
A: 0.709 GR

Q: What about the GR value (Neratinib/HKI272; 0.03162 µM) of the same cell line?
A: 0.491 GR

Q: What about the GR value (Neratinib/HKI272; 0.1 µM) of the same cell line?
A: 0.325 GR
